Reference: patent US7456165B2, “HCV NS5B inhibitors” (Bristol-Myers Squibb Company, priority 2006, dated 2008)

Experiments:
HCV replicon cells = assay: HCV replicon FRET assay; assay type: cell-based; settings: Hepatitis C virus
From the text: FRET Assay Preparation. To perform the HCV FRET screening assay, 96-well cell culture plates were used. The FRET peptide (Anaspec, Inc.) (Taliani et al., Anal Biochem. 1996, 240, 60-67) contains a fluorescence donor, EDANS, near one end of the peptide and an acceptor, DABCYL, near the other end. The fluorescence of the peptide is quenched by […] resonance energy transfer (RET) between the donor and the acceptor, but as the NS3 protease cleaves the peptide the products are released from RET quenching and the fluorescence of the donor becomes apparent. The assay reagent was made as follows: 5× cell Luciferase cell culture lysis reagent from Promega (#E153A) diluted to 1× with dH2O, NaCl added to 150 mM final, the FRET peptide diluted to 20 μM final from a 2 mM stock.
To prepare plates, HCV replicon cells, with or without a Renilla luciferase reporter gene, were trypsinized and placed into each well of a 96-well plate with titrated test compounds added in columns 3 through 12; columns 1 and 2 contained a control compound (HCV protease inhibitor), and the bottom row contained cells without compound. The plates were then placed in a CO2 incubator at 37° C.
Assays. Subsequent to addition of the test compounds described above (FRET Assay Preparation), at various times the plate was removed and Alamar blue solution (Trek Diagnostics, #00-100) was added per well as a measure of cellular toxicity. After reading in a Cytoflour 4000 instrument (PE Biosystems), plates were rinsed with PBS and then used for FRET assay by the addition of 30 ul of the FRET peptide assay reagent described above (FRET Assay Preparation) per well. The plate was then placed into the Cytoflour 4000 instrument which had been set to 340 excite/490 emission, automatic mode for 20 cycles and the plate read in a kinetic mode. Typically, the signal to noise using an endpoint analysis after the reads was at least three-fold. Alternatively, after Alamar blue reading, plates were rinsed with PBS, 50 ul of DMEM (high glucose) without phenol red was added and plates were then used for luciferase assay using the Promega Dual-Glo Luciferase Assay System.
Compound analysis was determined by quantification of the relative HCV replicon inhibition and the relative cytotoxicity values. To calculate cytoxicity values, the average Alamar Blue fluorescence signals from the control wells were set as 100% non-toxic. The individual signals in each of the compound test wells were then divided by the average control signal and multiplied by 100% to determine […]. To calculate the HCV replicon inhibition values, an average background value was obtained from the two wells containing the highest amount of HCV protease inhibitor at the end of the assay period. These numbers were similar to those obtained from naïve Huh-7 cells.
The background numbers were then subtracted from the average signal obtained from the control wells and this number was used as 100% activity. The individual signals in each of the compound test wells were then divided by the averaged control values after background subtraction and multiplied by 100% to determine percent activity. EC50 values for a protease inhibitor titration were calculated as the concentration which caused a 50% reduction in FRET or luciferase activity. The two numbers generated for the compound plate, percent cytoxicity and percent activity were used to determine compounds of interest for further analysis.

HCV NS5B = target: T1, HCV NS5B (Hepatitis C virus genotype 1b, UniProt Q9WMX2); assay: HCV NS5B RdRp enzyme assay (preincubation protocol); assay type: biochemical; settings: HCV NS5B RdRp genotype 1b
T1 construct: The protein was expressed with an 18 amino acid C-terminal truncation to enhance the solubility; made in house; host or cells: E. coli BL21(DE3)
Procedure: HCV NS5B RdRp cloning, expression, and purification. The cDNA encoding the NS5B protein of HCV, genotype 1b, was cloned into the pET21a expression vector. The protein was expressed with an 18 amino acid C-terminal truncation to enhance the solubility. The E. coli competent cell line BL21(DE3) was used for expression of the protein. Cultures were grown at 37° C. for ˜4 hours until the cultures reached an optical density of 2.0 at 600 nm. The cultures were cooled to 20° C. and induced with 1 mM IPTG. Fresh ampicillin was added to a final concentration of 50 μg/ml and the cells were grown overnight at 20° C.
Cell pellets (3 L) were lysed for purification to yield 15-24 mgs of purified NS5B. The lysis buffer consisted of 20 mM Tris-HCl, pH 7.4, 500 mM NaCl, 0.5% triton X-100, 1 mM DTT, 1 mM EDTA, 20% glycerol, 0.5 mg/ml lysozyme, 10 mM MgCl2, 15 ug/ml deoxyribonuclease I, and Complete TM protease inhibitor tablets (Roche). After addition of the lysis buffer, frozen cell pellets were resuspended using a tissue homogenizer. To reduce the viscosity of the sample, aliquots of the lysate were sonicated on ice using a microtip attached to a Branson sonicator. The sonicated lysate was centrifuged at 100,000×g for 1 hr at 4° C. and filtered through a 0.2 μm filter unit (Corning).
The protein was purified using three sequential chromatography steps: Heparin sepharose CL-6B, polyU sepharose 4B, and Hitrap SP sepharose (Pharmacia). The chromatography buffers were identical to the lysis buffer but contained no lysozyme, deoxyribonuclease I, MgCl2 or protease inhibitor and the NaCl concentration of the buffer was adjusted according to the requirements for charging the protein onto the column. Each column was eluted with a NaCl gradient which varied in length from 5-50 column volumes depending on the column type. After the final chromatography step, the resulting purity of the enzyme is >90% based on SDS-PAGE analysis. The enzyme was aliquoted and stored at −80° C.
Standard HCV NS5B RdRp enzyme assay. HCV RdRp genotype 1b assays were run in a final volume of 60 μl in 96 well plates (Costar 3912 H. The assay buffer is composed of 20 mM Hepes, pH 7.5, 2.5 mM KCl, 2.5 mM MgCl2, 1 mM DTT, 1.6 U RNAse inhibitor (Promega N2515), 0.1 mg/ml BSA (Promega R3961), and 2% glycerol. All compounds were serially diluted (3-fold) in DMSO and diluted further in water such that the final concentration of DMSO in the assay was 2%. HCV RdRp genotype 1b enzyme was used at a final concentration of 28 nM. A polyA template was used at 6 nM, and a biotinylated oligo-dT12 primer was used at 180 nM final concentration. Template was obtained commercially (Amersham 27-4110). Biotinylated primer was prepared by Sigma Genosys. 3H-UTP was used at 0.6 μCi (0.29 μM total UTP). Reactions were initiated by the addition of enzyme, incubated at 30° C. for 60 min, and stopped by adding 25 μl of 50 mM EDTA containing SPA beads (4 μg/μl, Amersham RPNQ 0007 H. Plates were read on a Packard Top Count NXT after >1 hr incubation at room temperature.
Modified HCV NS5B RdRp enzyme assay. A modified enzyme assay was performed essentially as described for the standard enzyme assay except for the following: The biotinylated oligo dT12 primer was precaptured on streptavidin-coated SPA beads by mixing primer and beads in assay buffer and incubating at room temperature for one hour. Unbound primer was removed after centrifugation. The primer-bound beads were resuspended in 20 mM Hepes buffer, pH 7.5 and used in the assay at final concentrations of 20 nM primer and 0.67 μg/μl beads. Order of addition in the assay: enzyme (14 nM) was added to diluted compound followed by the addition of a mixture of template (0.2 nM), 3H-UTP (0.6 μCi, 0.29 μM), and primer-bound beads, to initiate the reaction; concentrations given are final. Reactions were allowed to proceed for 4 hours at 30° C.
IC50 values for compounds were determined using seven different [I]. […]

T1 sequence (Q9WMX2 2420-2992): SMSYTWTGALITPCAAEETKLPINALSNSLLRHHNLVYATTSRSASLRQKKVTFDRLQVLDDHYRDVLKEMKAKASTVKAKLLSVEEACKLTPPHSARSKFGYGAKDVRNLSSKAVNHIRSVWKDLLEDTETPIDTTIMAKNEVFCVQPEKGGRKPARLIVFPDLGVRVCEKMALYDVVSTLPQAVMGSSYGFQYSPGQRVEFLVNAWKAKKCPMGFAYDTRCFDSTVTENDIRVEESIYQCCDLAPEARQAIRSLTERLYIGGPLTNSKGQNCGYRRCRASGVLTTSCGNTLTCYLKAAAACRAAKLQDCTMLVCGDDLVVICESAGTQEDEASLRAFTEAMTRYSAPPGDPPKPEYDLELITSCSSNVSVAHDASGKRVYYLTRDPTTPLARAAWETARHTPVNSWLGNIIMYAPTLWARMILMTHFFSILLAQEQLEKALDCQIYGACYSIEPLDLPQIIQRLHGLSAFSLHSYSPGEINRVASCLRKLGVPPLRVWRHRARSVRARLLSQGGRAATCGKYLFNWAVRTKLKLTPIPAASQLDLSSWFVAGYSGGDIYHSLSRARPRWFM

For `COC(=O)c1ccc2c(C3CCCCC3)c3n(c2c1)CC(c1nc(CS(C)(=O)=O)no1)=Cc1ccccc1-3` [Example 26, 13-cyclohexyl-6-[3-[(methylsulfonyl)methyl]-1,2,4-oxadiazol-5-yl-]7H-indolo[2,1-a][2]benzazepine-10-carboxylic acid, methyl ester], the EC50 (HCV replicon cells) was > 500 nM and the IC50 (HCV NS5B) was > 500 nM.

With `CS(=O)(=O)Cc1noc(C2=Cc3ccccc3-c3c(C4CCCCC4)c4ccc(C(=O)O)cc4n3C2)n1` [Example 27, 13-cyclohexyl-6-[3-[(methylsulfonyl)methyl]-1,2,4-oxadiazol-5-yl]-7H-indolo[2,1-a][2]benzazepine-10-carboxylic acid] the EC50 (HCV replicon cells) was > 500 nM and the IC50 (HCV NS5B) was 1 to 500 nM.

With `CN(C)S(=O)(=O)NC(=O)c1ccc2c(C3CCCCC3)c3n(c2c1)CC(c1nc(CS(C)(=O)=O)no1)=Cc1ccccc1-3` [Example 28, 13-cyclohexyl-N-[(dimethylamino)sulfonyl]-6-[3-[(methylsulfonyl)methyl]-1,2,4-oxadiazol-5-yl]-7H-indolo[2,1-a][2]benzazepine-10-carboxamide] the EC50 (HCV replicon cells) was > 500 nM and the IC50 (HCV NS5B) was 1 to 500 nM.

In the case of `Nc1nnc(C2=Cc3ccccc3-c3c(C4CCCCC4)c4ccc(C(=O)O)cc4n3C2)o1` [Example 30, 6-(5-amino-1,3,4-oxadiazol-2-yl)-13-cyclohexyl-7H-indolo[2,1-a][2]benzazepine-10-carboxylic acid], the EC50 (HCV replicon cells) is reported as > 500 nM and the IC50 (HCV NS5B) is reported as > 500 nM.

With `O=C(CN1CCOCC1)Nc1nnc(C2=Cc3ccccc3-c3c(C4CCCCC4)c4ccc(C(=O)O)cc4n3C2)o1` [Example 33, 13-cyclohexyl-6-[5-[(4-morpholinylacetyl)amino]-1,3,4-oxadiazol-2-yl]-7H-indolo[2,1-a][2]benzazepine-10-carboxylic acid] the EC50 (HCV replicon cells) was > 500 nM and the IC50 (HCV NS5B) was 1 to 500 nM.

With `COC(=O)c1ccc2c(C3CCCCC3)c3n(c2c1)CC(c1ncc(CCC(=O)N2CCOCC2)o1)=Cc1ccccc1-3` [Example 35] the EC50 (HCV replicon cells) was > 500 nM and the IC50 (HCV NS5B) was > 500 nM.

For `O=C(O)c1ccc2c(C3CCCCC3)c3n(c2c1)CC(c1ncc(CCC(=O)N2CCOCC2)o1)=Cc1ccccc1-3` [Example 36, 13-cyclohexyl-6-[5-[3-(4-morpholinyl)-3-oxopropyl]-2-oxazolyl]-7H-indolo[2,1-a][2]benzazepine-10-carboxylic acid], the EC50 (HCV replicon cells) was > 500 nM and the IC50 (HCV NS5B) was 1 to 500 nM.

Work on `CN(C)S(=O)(=O)NC(=O)c1ccc2c(C3CCCCC3)c3n(c2c1)CC(c1ncc(CCC(=O)N2CCOCC2)o1)=Cc1ccccc1-3` [Example 37, 13-cyclohexyl-N-[(dimethylamino)sulfonyl]-6-[5-[3-(4-morpholinyl)-3-oxopropyl]-2-oxazolyl-]7H-indolo[2,1-a][2]benzazepine-10-carboxamide] yielded an EC50 (HCV replicon cells) of 1 to 500 nM and an IC50 (HCV NS5B) of 1 to 500 nM.

Molecule `CN(C)S(=O)(=O)NC(=O)c1ccc2c(C3CCCCC3)c3n(c2c1)CC(c1ncc(CCC(=O)N2CCOCC2)o1)Cc1ccccc1-3` (stereo not shown) [Example 38, 13-cyclohexyl-N-[(dimethylamino)sulfonyl]-6,7-dihydro-6-[5-[3-(4-morpholinyl)-3-oxopropyl]-2-oxazolyl]-5H-indolo[2,1-a][2]benzazepine-10-carboxamide] has an EC50 (HCV replicon cells) of 1 to 500 nM and an IC50 (HCV NS5B) of 1 to 500 nM.

With `COC(=O)c1ccc2c(C3CCCCC3)c3n(c2c1)CC(c1nnc(CC2CCOCC2)o1)=Cc1ccccc1-3` [Example 39, 13-cyclohexyl-6-[5-[(tetrahydro-2H-pyran-4-yl)methyl]-1,3,4-oxadiazol-2-yl]-7H-indolo[2,1-a][2]benzazepine-10-carboxylic acid, methyl ester] the EC50 (HCV replicon cells) was > 500 nM and the IC50 (HCV NS5B) was > 500 nM.

In the case of `COC(=O)c1ccc2c(C3CCCCC3)c3n(c2c1)CC(c1n[nH]c(CC2CCOCC2)n1)=Cc1ccccc1-3` [Example 40, 13-cyclohexyl-6-[5-[(tetrahydro-2H-pyran-4-yl)methyl]-1H-1,2,4-triazol-3-yl]-7H-indolo[2,1-a][2]benzazepine-10-carboxylic acid, methyl ester], the EC50 (HCV replicon cells) is reported as > 500 nM and the IC50 (HCV NS5B) is reported as > 500 nM.

For `COC(=O)c1ccc2c(C3CCCCC3)c3n(c2c1)CC(c1nc(CC2CCOCC2)n(C)n1)=Cc1ccccc1-3` [Example 41, 13-cyclohexyl-6-[1-methyl-5-[(tetrahydro-2H-pyran-4-yl)methyl]-1H-1,2,4-triazol-3-yl]-7H-indolo[2,1-a][2]benzazepine-10-carboxylic acid, methyl ester], the EC50 (HCV replicon cells) was > 500 nM and the IC50 (HCV NS5B) was > 500 nM.

With `Cn1nc(C2=Cc3ccccc3-c3c(C4CCCCC4)c4ccc(C(=O)O)cc4n3C2)nc1CC1CCOCC1` [Example 42, 13-cyclohexyl-6-[1-methyl-5-[(tetrahydro-2H-pyran-4-yl)methyl]-1H-1,2,4-triazol-3-yl]-7H-indolo[2,1-a][2]benzazepine-10-carboxylic acid] the EC50 (HCV replicon cells) was > 500 nM and the IC50 (HCV NS5B) was > 500 nM.

In the case of `CN(C)S(=O)(=O)NC(=O)c1ccc2c(C3CCCCC3)c3n(c2c1)CC(c1nc(CC2CCOCC2)n(C)n1)=Cc1ccccc1-3` [Example 43, 13-cyclohexyl-N-[(dimethylamino)sulfonyl]-6-[1-methyl-5-[(tetrahydro-2H-pyran-4-yl)methyl]-1H-1,2,4-triazol-3-yl]-7H-indolo[2,1-a][2]benzazepine-10-carboxamide], the EC50 (HCV replicon cells) is reported as > 500 nM and the IC50 (HCV NS5B) is reported as 1 to 500 nM.
